Key:
[1] = biological target: T1, B-RAFV600E (Homo sapiens, UniProt P15056, V600E); test: B-RAFV600E radiometric assay; type: biochemical; details: read-out: Kinase assay B-Raf
T1 construct: purchased Millipore, USA 14-557
Procedure, shortened: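 B-RAFV600E was preincubated 45 min at rt with compound in 1% DMSO. MEK-K97M (0.5 μg), 5 μM final cold ATP and [γ-32P]ATP were then added for 2 h at rt. Phosphorylated MEK was captured on P81 paper and scintillation-counted; IC50 came from a sigmoidal dose-response fit.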

[2] = biological target: T2, mTOR kinase (Homo sapiens, UniProt P42345); test: mTOR kinase TR-FRET assay; type: biochemical
T2 construct: purchased Millipore, US
Procedure, shortened: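 TR-FRET with ULight-p70 S6K (Thr 389) peptide (50 nM) and 20 μM ATP in 50 mM HEPES pH 7.5, 1 mM EGTA, 3 mM MnCl2; compound pre-incubated with enzyme before substrate addition, reaction at rt, EDTA-stopped. Eu anti-phospho antibody read 665/615 nm; IC50 from sigmoidal dose-response fit.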

[3] = system: pERK in A375 cells; test: In Cell Western (ICW) assay, pERK in A375 cells; type: cell-based; details: Homo sapiens, A-375, 3 h treatment
Procedure: Cell lines A375, A2058 and RKO obtained from the ATCC as provided above, were grown, and after attaining ˜80% confluency were trypsinized, centrifuged and resuspended in fresh media. The cells were seeded at the specified density (20,000 to 50,000) in a 96-well format black-well clear bottom plate (Corning) and incubated overnight at 37° C. in a 5% CO2 incubator. The next day, compound dilutions of test compounds were prepared in 100% DMSO followed by dilutions in respective media. Treatment of test compounds was performed for 3 h at 37° C. in 5% CO2 incubator. Following 3 h drug treatment, the conditional media was discarded and the cells were washed once with cPBS (PBS containing 0.1% magnesium chloride hexahydrate and 0.1% anhydrous calcium chloride) and fixed with 4% paraformaldehyde in cPBS for 1 h at rt. After fixing, the cells were given three washes using cPBST (cPBS containing 0.1% Triton™ X-100 reagent) and then blocked using blocking solution (5% skimmed milk powder or 5% BSA prepared in cPBST) for 2 h at rt with shaking at 300 rpm. The cells were again washed thrice with cPBST and incubated with primary antibody phospho-p44/42 MAPK(Erk1/2)(Thr202/204) antibody (Cell Signaling, Catalog # 9101L), phospho S6 ribosomal protein (Cell Signaling, Catalog #4858L), phospho AKT (Thr 308) (Cell Signaling, Catalog #9275) or phospho AKT (Ser 473) (Cell Signaling, Catalog #4060L) in specified dilutions (1:500-1:2500), prepared in respective blocking solutions, in a racker overnight at 4° C. The next day, the cells were washed with 1× Delfia® wash buffer (4×1 wash) and incubated with secondary antibody (Delfia®-Eu-N1 labeled anti-rabbit antibody; PerkinElmer, Catalog #AD0105; dilutions: 1:2000 to 1:6000 in Delfia® assay buffer (PerkinElmer, Catalog #1244-111)) for 2 h at rt in the dark at 300 rpm. The cells were then given four washes with 1× Delfia® wash buffer and incubated with Wallac Delfia® Enhancement solution (100 μL; PerkinElmer, Catalog #1244-105) for 20 min at rt in the dark at 300 rpm. The fluorescence emission was then read at 615 nm with an excitation wavelength of 340 nm using a Victor V5 Fluorometer (Perkin Elmer, US). The cells were then washed once with 1×cPBS and incubated with 100 μL of 0.5 mg/mL of Hoechst 33258 dye prepared in cPBS and read at 460 nm with 355 nm excitation, thereby evaluating the correction factor.
The % inhibition for the test compounds of formula (I) (new chemical entities (NCEs)) was calculated keeping DMSO control as 0% and the IC50 values were determined using sigmoidal dose response curve fit in GraphPad Prism® v5 software.

[4] = system: A375 cells; test: XTT assay for cell viability, A375 cells; type: cell-based; details: Homo sapiens, A-375, 72 h
Procedure: Cell lines (A375 ATCC No. CRL-1619, A2058 ATCC No. CRL-11147 and RKO ATCC No. CRL-2577, American Type Culture Collection (ATCC), Manassas Va.) once attaining ˜80% confluency were trypsinized, centrifuged and resuspended in fresh media. Cells (1000-2000/per well) were seeded in 96-well plate and incubated over-night at 37° C. in a 5% CO2 incubator. Compound dilutions were prepared in 100% DMSO followed by dilutions in the respective media. The cells were treated with NCEs for 72 h at 37° C. in 5% CO2 incubator. After 72 h, freshly prepared XTT (1 mg/ml)/PMS (25 μM) solution was added, incubated for 2 to 3 h at 37° C. and the absorbance was measured at 450 nm using an ELISA plate reader. Keeping DMSO control as 100%, the effect of the compound to inhibit the cell proliferation was calculated and the GI50 values were determined using sigmoidal dose response curve fit in GraphPad Prism® v5 software.

T1 sequence (P15056 416-766 V600E limits assumed): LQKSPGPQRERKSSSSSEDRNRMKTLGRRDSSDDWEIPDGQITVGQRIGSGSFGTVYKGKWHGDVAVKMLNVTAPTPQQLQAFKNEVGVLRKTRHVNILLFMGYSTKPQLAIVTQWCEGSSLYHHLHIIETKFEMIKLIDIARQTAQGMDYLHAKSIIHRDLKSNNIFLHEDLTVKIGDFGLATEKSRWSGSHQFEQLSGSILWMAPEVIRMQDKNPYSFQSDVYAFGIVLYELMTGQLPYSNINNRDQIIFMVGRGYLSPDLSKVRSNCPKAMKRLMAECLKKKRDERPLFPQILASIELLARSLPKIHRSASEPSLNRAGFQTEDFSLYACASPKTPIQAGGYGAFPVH
T2 sequence (P42345 1362-2549 limits assumed): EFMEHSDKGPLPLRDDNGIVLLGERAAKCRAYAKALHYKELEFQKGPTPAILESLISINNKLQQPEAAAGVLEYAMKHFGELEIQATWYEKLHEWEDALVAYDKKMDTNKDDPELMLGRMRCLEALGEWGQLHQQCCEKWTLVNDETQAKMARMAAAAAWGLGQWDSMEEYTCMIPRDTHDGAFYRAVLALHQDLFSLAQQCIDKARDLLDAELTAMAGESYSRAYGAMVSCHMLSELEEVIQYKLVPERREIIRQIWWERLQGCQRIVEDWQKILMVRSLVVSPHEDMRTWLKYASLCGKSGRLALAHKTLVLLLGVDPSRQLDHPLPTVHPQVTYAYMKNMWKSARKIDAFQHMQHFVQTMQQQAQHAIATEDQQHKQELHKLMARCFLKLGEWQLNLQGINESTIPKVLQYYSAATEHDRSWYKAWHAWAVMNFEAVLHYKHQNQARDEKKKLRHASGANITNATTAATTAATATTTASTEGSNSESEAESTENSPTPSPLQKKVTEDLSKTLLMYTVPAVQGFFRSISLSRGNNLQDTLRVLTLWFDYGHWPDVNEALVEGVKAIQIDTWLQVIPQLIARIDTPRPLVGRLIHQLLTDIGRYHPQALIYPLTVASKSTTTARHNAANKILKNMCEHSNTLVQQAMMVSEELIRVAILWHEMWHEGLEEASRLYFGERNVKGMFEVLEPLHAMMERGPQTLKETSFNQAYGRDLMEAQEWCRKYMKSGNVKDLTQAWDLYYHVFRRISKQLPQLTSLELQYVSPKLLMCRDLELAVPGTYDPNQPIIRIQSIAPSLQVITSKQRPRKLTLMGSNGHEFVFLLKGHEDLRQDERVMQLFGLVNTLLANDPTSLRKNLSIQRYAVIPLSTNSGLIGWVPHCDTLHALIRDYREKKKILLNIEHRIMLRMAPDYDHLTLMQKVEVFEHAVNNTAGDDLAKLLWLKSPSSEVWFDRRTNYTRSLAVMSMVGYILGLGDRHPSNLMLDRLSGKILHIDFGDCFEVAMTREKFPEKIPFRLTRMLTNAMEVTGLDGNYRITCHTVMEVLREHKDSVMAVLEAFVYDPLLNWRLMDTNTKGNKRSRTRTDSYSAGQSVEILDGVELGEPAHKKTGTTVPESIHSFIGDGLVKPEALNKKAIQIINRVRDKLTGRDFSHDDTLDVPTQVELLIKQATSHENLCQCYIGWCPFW

Row | Structure (SMILES) | IC50 [1] [nM] | IC50 [2] [nM] | IC50 [3] [nM] | IC50 [4] [nM]
1 | COc1cc(-c2cccc(NS(=O)(=O)c3ccccc3F)c2F)cc2c(N3CCOCC3)nc(-c3ccc(N)nc3)nc12 [Example 29, N-(3-(2-(6-aminopyridin-3-yl)-8-methoxy-4-morpholinoquinazolin-6-yl)-2-fluorophenyl)-2-fluorobenzenesulfonamide] | 1 to 100 | 100 to 1000 | 1 to 100 | 100 to 1000
2 | COc1cc(-c2cccc(NS(=O)(=O)C(C)C)c2F)cc2c(N3CCOCC3)nc(-c3ccc(N)nc3)nc12 [Example 33, N-(3-(2-(6-aminopyridin-3-yl)-8-methoxy-4-morpholinoquinazolin-6-yl)-2-fluorophenyl)propane-2-sulfonamide] | 100 to 1000 | 100 to 1000 | 100 to 1000 | 100 to 1000
3 | COc1cc(-c2cccc(NS(=O)(=O)c3cccs3)c2F)cc2c(N3CCOCC3)nc(-c3ccc(N)nc3)nc12 [Example 38, N-(3-(2-(6-aminopyridin-3-yl)-8-methoxy-4-morpholinoquinazolin-6-yl)-2-fluorophenyl)thiophene-2-sulfonamide] | 1 to 100 | 100 to 1000 | 1 to 100 | 100 to 1000
4 | COc1cc(-c2cccc(NS(=O)(=O)CCCF)c2F)cc2c(N3CCOC[C@@H]3C)nc(-c3ccc(N)nc3)nc12 [Example 41, (S)-N-(3-(2-(6-aminopyridin-3-yl)-8-methoxy-4-(3-methylmorpholino)quinazolin-6-yl)-2-fluorophenyl)-3-fluoropropane-1-sulfonamide] | 1 to 100 | 1 to 100 | 1 to 100 | 100 to 1000
5 | COc1cc(-c2cccc(NS(=O)(=O)CCCF)c2F)cc2c(N3CCOC[C@@H]3C)nc(-c3cnc(N)nc3)nc12 [Example 45, (S)-N-(3-(2-(2-aminopyrimidin-5-yl)-8-methoxy-4-(3-methylmorpholino)quinazolin-6-yl)-2-fluorophenyl)-3-fluoropropane-1-sulfonamide] | 100 to 1000 | 100 to 1000 | 100 to 1000 | 100 to 1000
6 | Nc1ccc(-c2nc(N3CCOCC3)c3cc(-c4cccc(NS(=O)(=O)CCCF)c4F)ccc3n2)cn1 [Example 46, N-(3-(2-(6-aminopyridin-3-yl)-4-morpholinoquinazolin-6-yl)-2-fluorophenyl)-3-fluoropropane-1-sulfonamide] | 1 to 100 | 100 to 1000 | 1 to 100 | 100 to 1000
7 | COc1cc(-c2cccc(NS(=O)(=O)c3ccccc3F)c2F)cc2c(N3CCOCC3)nc(-c3cnc(N)nc3)nc12 [Example 47, N-(3-(2-(2-aminopyrimidin-5-yl)-8-methoxy-4-morpholinoquinazolin-6-yl)-2-fluorophenyl)-2-fluorobenzenesulfonamide] | 1 to 100 | 100 to 1000 | 100 to 1000 | 100 to 1000
8 | CCOc1cc(-c2cccc(NS(=O)(=O)CCCF)c2F)cc2c(N3CCOCC3)nc(-c3cnc(N)nc3)nc12 [Example 54, N-(3-(2-(2-aminopyrimidin-5-yl)-8-ethoxy-4-morpholinoquinazolin-6-yl)-2-fluorophenyl)-3-fluoropropane-1-sulfonamide] | 1 to 100 | 100 to 1000 | 1 to 100 | 100 to 1000
9 | NC(=O)COc1cc(-c2cccc(NS(=O)(=O)CCCF)c2F)cc2c(N3CCOCC3)nc(-c3ccc(N)nc3)nc12 [Example 60, 2-((2-(6-aminopyridin-3-yl)-6-(2-fluoro-3-(3-fluoropropylsulfonamido)phenyl)-4-morpholino-quinazolin-8-yl)oxy)acetamide] | 1 to 100 | 1 to 100 | 1000 to 10000 | 1000 to 10000
10 | Nc1ccc(-c2nc(N3CCOCC3)c3cc(-c4cccc(NS(=O)(=O)CCCF)c4F)cc(N4CCCC4)c3n2)cn1 [Example 70, N-(3-(2-(6-aminopyridin-3-yl)-4-morpholino-8-(pyrrolidin-1-yl)quinazolin-6-yl)-2-fluorophenyl)-3-fluoropropane-1-sulfonamide] | 1 to 100 | 100 to 1000 | 100 to 1000 | 1 to 100
11 | Nc1ncc(-c2nc(N3CCOCC3)c3cc(-c4cccc(NS(=O)(=O)CCCF)c4F)cc(N4CCCC4)c3n2)cn1 [Example 71, N-(3-(2-(2-aminopyrimidin-5-yl)-4-morphollno-8-(pyrrolidin-1-yl)quinazolin-6-yl)-2-fluorophenyl)-3-fluoropropane-1-sulfonamide] | 100 to 1000 | 1 to 100 | 1 to 100 | 100 to 1000
12 | CCCS(=O)(=O)Nc1ccc(F)c(-c2cc(OC)c3nc(-c4ccc(N)nc4)nc(N4CCOCC4)c3c2)c1F [Example 75, N-(3-(2-(6-aminopyridin-3-yl)-8-methoxy-4-morpholinoquinazolin-6-yl)-2,4-difluorophenyl)propane-1-sulfonamide] | 1 to 100 | 1 to 100 | 1 to 100 | 100 to 1000
13 | COc1cc(-c2c(F)ccc(NS(=O)(=O)c3c(F)cccc3F)c2F)cc2c(N3CCOCC3)nc(-c3cnc(N)nc3)nc12 [Example 76, N-(3-(2-(2-aminopyrimidin-5-yl)-8-methoxy-4-morpholinoquinazolin-6-yl)-2,4-difluorophenyl)-2,6-difluorobenzenesulfonamide] | 1 to 100 | 100 to 1000 | 100 to 1000 | 100 to 1000
14 | COc1cc(-c2c(F)ccc(NS(=O)(=O)c3c(F)cccc3F)c2F)cc2c(N3CCOCC3)nc(-c3ccc(N)nc3)nc12 [Example 77, N-(3-(2-(6-aminopyridin-3-yl)-8-methoxy-4-morpholinoquinazolin-6-yl)-2,4-difluorophenyl)-2,6-difluorobenzenesulfonamide] | 1 to 100 | 100 to 1000 | 100 to 1000 | 100 to 1000
15 | COc1cc(-c2c(F)ccc(NS(=O)(=O)c3cc(F)ccc3F)c2F)cc2c(N3CCOCC3)nc(-c3ccc(N)nc3)nc12 [Example 78, N-(3-(2-(6-aminopyridin-3-yl)-8-methoxy-4-morpholinoquinazolin-6-yl)-2,4-difluorophenyl)-2,5-difluorobenzenesulfonamide] | 1 to 100 | 100 to 1000 | 1 to 100 | 100 to 1000
16 | CCCS(=O)(=O)Nc1ccc(Cl)c(-c2cc(OC)c3nc(-c4ccc(N)nc4)nc(N4CCOCC4)c3c2)c1F [Example 80, N-(3-(2-(6-aminopyridin-3-yl)-8-methoxy-4-morpholinoquinazolin-6-yl)-4-chloro-2-fluorophenyl)propane-1-sulfonamide] | 1 to 100 | 100 to 1000 | 100 to 1000 | 100 to 1000
17 | COc1cc(-c2c(F)ccc(NS(=O)(=O)CCCF)c2F)cc2c(N3CCOCC3)nc(-c3cnc(N)nc3)nc12 [Example 82, N-(3-(2-(2-aminopyrimidin-5-yl)-8-methoxy-4-morpholinoquinazolin-6-yl)-2,4-difIuorophenyl)-3-fluoropropane-1-sulfonamide] | 1 to 100 | 100 to 1000 | 1 to 100 | 1 to 100

From patent publication US9499495B2, “Quinazolines and azaquinazolines as dual inhibitors of RAS/RAF/MEK/ERK and PI3K/AKT/PTEN/mTOR pathways” (Asana Biosciences, LLC, priority 2013, dated 2016)
